In patent US20170184612A1, “USE OF LEUKOCYTES AND NOVEL BIOMARKERS IN THE DIAGNOSIS, CONFIRMATION, AND TREATMENT OF A NEUROLOGICAL DISORDER” (The Trustees of Columbia University in the City of New York, priority 2014, published 2017):

Key:
Format in all cases: cell-based, human
[1] = tested on: peripheral blood mononuclear cells (PBMC), T cells; assay: ELISpot assay, gamma-interferon release (SFC) after stimulation with a-synuclein epitope pools; conditions: for IFNg Peptide + (donors positive to the peptide): of donors tested (peptide); for IFNg Peptide +: number of donors positive to the single peptide
In short: (§1)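 Samples came from 44 PD patients and 24 matched controls, tested blindly. Their PBMC were stimulated for 22 hours at 37 C with α-synuclein peptide pools, and pools that responded were resolved into individual epitopes.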

[2] = tested on: peripheral blood mononuclear cells (PBMC), T cells; assay: ELISpot assay, IL-5 release (SFC) after stimulation with a-synuclein epitope pools; conditions: for IL-g Peptide + (donors positive to the peptide): of donors tested (peptide); for IL-g Peptide +: number of donors positive to the single peptide
In short: as §1

[3] = tested on: peripheral blood mononuclear cells (PBMC), T cells; assay: ELISpot assay, IFNg and IL-5 reactivity combined, T cell response to α-syn epitopes; conditions: for Peptides + in Patients & Normals: flag 1/0 per peptide; for epitope identified by deconvolution of T cell response, in words: PD patients, region including Y39
Procedure: Blood from age matched controls and PD patients were obtained and mononuclear cells were isolated by gradient centrifugation.
Release of the cytokines gamma-interferon, which measures activation of CD4+ and/or CD8+ T cells, and the interleukin, IL-5, which measures activation of CD4+ T cells was measured by ELISpot assay. […] After 22 hours of stimulation at 37 C, the cells were removed and release of cytokines was measured by colorimetric detection of spot-forming cells (SFC). Confirmed release of cytokine is determined by the presence of a minimum of 20 SFC per million cells.
The binding algorithms in SubAim 1 predict how well the peptides would bind to MHC if present, but not if they are present in patients. To determine this, the presence of T cell response against the candidate antigens by patient blood-derived peripheral blood mononuclear cells (PBMC) is assessed by ELISPOT assays upon stimulation with the peptides. This assay detects and quantifies cytokine release (in this case, IFNγ and IL-5) from specific activated T cells.
Data were obtained from blood samples (25 ml) from 44 PD patients and 24 age-matched controls. The experiments were conducted blindly. PBMCs from these samples were isolated and exposed to pools comprising the 122 candidate class I and class II antigens and phosphorylated S129 epitopes generated in Subaim 1. For the PBMCs responsive to the pooled peptides, the response was then deconvoluted to identify individual epitopes.
PMBC fractions are recovered by standard methods with Ficoll gradient and T cells expansion (Oseroff et al., 2010). The methods for the analysis of T cell reactions and measurement of cytokines production using the enzyme-linked immunosorbent spot (ELISPOT) assay are published in analogous experiments to discover antigens in multiple sclerosis (Lolli et al., 2013) and in hay fever allergens (Oseroff et al., 2010). T cell responses are determined by measuring IFNγ and IL-5 release by ELISPOT. Statistical analysis of differences between populations is expected to be non-parametric and analyzed with the U-Mann-Whitney test. If there were a normal distribution of response, which is a priori unlikely as some patients have no T cell response, with an SD=1, 8 patients per group would be required to provide a p>90% that the study detect a >2 fold difference at a two-sided 0.05 significance level.

[4] = Normals Summary, single peptide
[5] = Patients Summary, PD patients, single peptide
[6] = second 'Pool Stimulated' section (from r296), 12 donors tested
[7] = peptide + / donors tested (peptide), second 'Pool Stimulated' section (from r296), 12 donors tested
[8] = single peptide, second 'Pool Stimulated' section (from r296), 12 donors tested

Row | Substance | IFNg Peptide + (donors positive to the peptide) ([1]; Patients Summary, PD patients) | IFNg Response Frequency [1, 5] | IFNg Total SFC [1, 5] | IL-g Peptide + (donors positive to the peptide) ([2]; Patients Summary, PD patients) | IL-g Response Frequency [2, 5] | IL-g Total SFC [2, 5] | Peptides + in Patients & Normals [3] | IFNg Peptide + [1, 6] | IFNg Response Frequency [1, 7] | IFNg Total SFC [1, 8] | IL-g Peptide + [2, 6] | IL-g Response Frequency [2, 7] | IL-g Total SFC [2, 8] | further results
1 | 3521.001 (VFMKGLSKA; listed as Homo sapiens) | 1 | 33% | 75 SFC | 1 | 33% | 634 SFC | 1 |  |  |  |  |  |  | IFNg Peptide + (donors positive to the peptide) ([1]; Normals Summary): 1; IFNg Avg SFC [1, 4]: 220 SFC; IFNg Response Frequency [1, 4]: 100%; IFNg Total SFC [1, 4]: 220 SFC; IFNg Avg SFC [1, 5]: 75 SFC; IL-g Peptide + (donors positive to the peptide) ([2]; Normals Summary): 1; IL-g Avg SFC [2, 4]: 193 SFC; IL-g Response Frequency [2, 4]: 100%; IL-g Total SFC [2, 4]: 193 SFC; IL-g Avg SFC [2, 5]: 634 SFC
2 | 3521.0004 (KTKEGVLYV; listed as Homo sapiens) | 0 | 0% | 0 SFC | 0 | 0% | 0 SFC | 0 | 0 | 0% | 0 SFC | 0 | 0% | 0 SFC | 
3 | 3521.007 (GVVAAAEKTK; listed as Homo sapiens) | 2 | 67% | 225 SFC | 1 | 33% | 23 SFC | 0 | 0 | 0% | 0 SFC | 0 | 0% | 0 SFC | IFNg Avg SFC [1, 5]: 113 SFC; IL-g Avg SFC [2, 5]: 23 SFC
4 | 3521.008 (VAAAEKTKQGVAEAA; listed as Homo sapiens) | 1 | 33% | 150 SFC | 0 | 0% | 0 SFC | 0 | 0 | 0% | 0 SFC | 0 | 0% | 0 SFC | IFNg Avg SFC [1, 5]: 150 SFC
5 | 3521.0012 (KTKQGVAEA; listed as Homo sapiens) | 0 | 0% | 0 SFC | 0 | 0% | 0 SFC | 0 |  |  |  |  |  |  | IFNg Peptide + (donors positive to the peptide) ([1]; Normals Summary): 0; IFNg Response Frequency [1, 4]: 0%; IFNg Total SFC [1, 4]: 0 SFC; IL-g Peptide + (donors positive to the peptide) ([2]; Normals Summary): 0; IL-g Response Frequency [2, 4]: 0%; IL-g Total SFC [2, 4]: 0 SFC
6 | 3521.0016 (DVFMKGLSK; listed as Homo sapiens) | 0 | 0% | 0 SFC | 0 | 0% | 0 SFC | 0 |  |  |  |  |  |  | IFNg Peptide + (donors positive to the peptide) ([1]; Normals Summary): 1; IFNg Avg SFC [1, 4]: 673 SFC; IFNg Response Frequency [1, 4]: 100%; IFNg Total SFC [1, 4]: 673 SFC; IL-g Peptide + (donors positive to the peptide) ([2]; Normals Summary): 1; IL-g Avg SFC [2, 4]: 180 SFC; IL-g Response Frequency [2, 4]: 100%; IL-g Total SFC [2, 4]: 780 SFC
7 | 3521.0017 (FMKGLSKAK; listed as Homo sapiens) | 0 | 0% | 0 SFC | 0 | 0% | 0 SFC | 0 |  |  |  |  |  |  | IFNg Peptide + (donors positive to the peptide) ([1]; Normals Summary): 1; IFNg Avg SFC [1, 4]: 46.7 SFC; IFNg Response Frequency [1, 4]: 100%; IFNg Total SFC [1, 4]: 46.7 SFC; IL-g Peptide + (donors positive to the peptide) ([2]; Normals Summary): 0; IL-g Response Frequency [2, 4]: 0%; IL-g Total SFC [2, 4]: 0 SFC
8 | 3521.0043 (VFMKGLSKAK; listed as Homo sapiens) | 0 | 0% | 0 SFC | 1 | 33% | 191 SFC | 1 | 1 | 100% | 66.7 SFC | 1 | 100% | 93.3 SFC | IFNg Avg SFC [1, 8]: 66.7 SFC; IL-g Avg SFC [2, 5]: 191 SFC; IL-g Avg SFC [2, 8]: 93.3 SFC
9 | 3521.0046 (FMKGLSKAKE; listed as Homo sapiens) | 0 | 0% | 0 SFC | 0 | 0% | 0 SFC | 0 | 0 | 0% | 0 SFC | 0 | 0% | 0 SFC | 
10 | 3521.0052 (KTKQGVAEAA; listed as Homo sapiens) | 0 | 0% | 0 SFC | 0 | 0% | 0 SFC | 0 | 0 | 0% | 0 SFC | 0 | 0% | 0 SFC | 
11 | 3521.0053 (KAKEGVVAAA; listed as Homo sapiens) | 0 | 0% | 0 SFC | 0 | 0% | 0 SFC | 0 | 0 | 0% | 0 SFC | 0 | 0% | 0 SFC | 
12 | 3521.0066 (KAKEGVVAA; listed as Homo sapiens) | 0 | 0% | 0 SFC | 0 | 0% | 0 SFC | 0 | 0 | 0% | 0 SFC | 0 | 0% | 0 SFC | 
13 | GVLYVGSKTK (listed as Homo sapiens) |  |  |  |  |  |  |  |  |  |  |  |  |  | epitope identified by deconvolution of T cell response, in words [3]: antigenic
14 | VLYVGSKTK (listed as Homo sapiens) |  |  |  |  |  |  |  |  |  |  |  |  |  | epitope identified by deconvolution of T cell response, in words [3]: antigenic
